Assay results published in patent US12054747B2, “Method of differentiating primordial germ cell into primordial follicle in vitro” (KYUSHU UNIVERSITY, NATIONAL UNIVERSITY CORPORATION, priority 2018, dated 2024).

Columns and labels:
[1] = system: oocytes in gonad of a 12.5 day-old fetus after fertilization; assay: In vitro culture of gonad in presence of PI3K inhibitor; oocyte size counted by Stella-CFP fluorescence; format: cell-based, mouse; details: 25 μM Ly from 6th to 16th day of culture; observed on 16th day; FIG. 6B
Procedure: First, a Transwell-COL membrane (3.0 μm pore size, 24 mm diameter) (manufactured by Corning Inc.) was set in each well of a 6-well plate, and the gonad collected in (1) were placed on a membrane. Then, 1.3 mL of medium was added to each well and culture was performed for 16 days. Also, the medium was cultured in αM2 for 4 days and then cultured in S10. In addition, the PI3K inhibitor LY294002 (hereinafter, may be abbreviated as “Ly”) (manufactured by Cell Signaling Technology, model number: 9901) was added to the medium such that a final concentration is 25 μM, during the period from the 6th day to the 16th day from the start of the culture. In addition, ICI 182,780 (7α,17β-[9-[(4,4,5,5,5-pentafluoropentyl)sulfinyl]nonyl]estra-1,3,5(10)-triene-3,17-diol) (manufactured by Tocris Bioscience) which is an estrogen receptor antagonist was added during the period from 5th to 9th day after the start of culture such that a final concentration in the medium is 500 nM. About half of the medium was replaced with a new medium every other day. In addition, as a control, those cultured in the same manner without adding Ly (cultured under a steady condition) were also prepared. The gonad on the 16th day from the start of culture were observed under a fluorescent stereomicroscope (manufactured by Olympus Corporation, model number: SZX16). In FIG. 6A, “Control” is a gonad cultured under a steady condition (in the absence of Ly), and “Ly” is a gonad cultured in the presence of the PI3K inhibitor LY294002. A scale bar represents 50 μm. Further, FIG. 6B is a graph in which the number of oocytes was counted using the expression of Stella-CFP as an index in FIG. 6A, and proportions of the oocytes smaller than 20 μm, 20 μm or larger and 50 μm or smaller, and larger than 50 μm were calculated.

[2] = system: transcription factor Foxo3a localization in oocytes; assay: In vitro culture of gonad in presence of PI3K inhibitor with or without pressurization; Foxo3a immunostaining; format: cell-based, mouse; details: 25 μM Ly, oocytes of 20 μm or smaller, 16th day; for proportion of oocytes in which Foxo3a was localized in the nucleus: FIG. 8A; for proportion of oocytes in which Foxo3a was localized in the cytosol: FIG. 8B
Procedure: Specifically, first, a Transwell-COL membrane (3.0 μm pore size, 24 mm diameter) (manufactured by Corning Inc.) was set in each well of a 6-well plate, and the gonad collected in (1) were placed on a membrane. Then, 1.3 mL of medium was added to each well and culture was performed for 16 days. For artificial pressurization, AGP-3001S (registered trademark) manufactured by STREX was used to apply a hydrostatic pressure of 33.33 kPa, during the period from the 6th day to the 16th day from the start of the culture. In addition, Ly was added to the medium such that a final concentration is 25 μM, during the period from the 6th day to the 16th day from the start of the culture. Also, the medium was cultured in αM2 for 4 days and then cultured in S10. In addition, ICI 182,780 (7α,17β-[9-[(4,4,5,5,5-pentafluoropentyl)sulfinyl]nonyl]estra-1,3,5(10)-triene-3,17-diol) (manufactured by Tocris Bioscience) which is an estrogen receptor antagonist was added during the period from 5th to 9th day after the start of culture such that a final concentration in the medium is 500 nM. About half of the medium was replaced with anew medium every other day. As a control, those cultured in the same manner in the presence of Ly without pressurization were also prepared. In the gonad cultured in (2), a tissue section of the gonad was prepared by using the same method as in (1) of Reference Example 1. Then, the tissue section of the gonad obtained in (3) was immunohistochemically stained using the same method as in (4) of Example 1. […] In FIG. 7, “No Press (0 kPa)” is a gonad cultured in the presence of Ly without pressurization. “Press (33.3 kPa)” is a gonad cultured under the artificially pressurized condition and in the presence of Ly. a and e are staining images for CFP expressed under the control of the expression of the germ cell marker Stella. b and f are immunostaining images using an antibody against a transcription factor Foxo3α. c and g are immunostaining images using an antibody against the MVH of the germ cell marker. d is an image in which a nuclear-staining image using DAPI is superimposed on the staining images in a to c. h is an image in which a nuclear-staining image using DAPI is superimposed on the staining images in e to g. A scale bar represents 10 μm. Further, FIG. 8A is a graph obtained by calculating a proportion of oocytes in which the transcription factor Foxo3a is localized in the nucleus, from the immunostaining image using the antibody against the transcription factor Foxo3a in FIG. 7. FIG. 8B is a graph obtained by calculating a proportion of oocytes in which the transcription factor Foxo3a is localized in a cytosol, from the immunostaining image using the antibody against the transcription factor Foxo3a in FIG. 7.

[3] = artificially pressurized condition (33.33 kPa)

## O=c1cc(N2CCOCC2)oc2c(-c3ccccc3)cccc12 [Ly, LY294002]
[1]
  proportion of oocytes having a size larger than 50 μm: about 23%
  proportion of oocytes having a size smaller than 20 μm in total oocytes: about 29%
  proportion of oocytes with a size of 20 μm or larger and 50 μm or smaller: about 48%
[2]; [3]
  proportion of oocytes in which Foxo3a was localized in the nucleus: about 82%
  proportion of oocytes in which Foxo3a was localized in the cytosol: about 18%
[2]; without pressurization (0 kPa)
  proportion of oocytes in which Foxo3a was localized in the nucleus: about 52%
  proportion of oocytes in which Foxo3a was localized in the cytosol: about 48%
